Reference: patent US12723063B2, “GIPR-agonist compounds” (Eli Lilly and Company, priority 2019, dated 2026)
*1 amine or outer side, *2 acyl side, *3 side chain or, on linkers, in order; H or OH if unused. Where a SMILES comes first, the peptide text is derived from it. Side-chain parts run from the residue outwards. [ ]: non-standard residue; d: D form. The star is where a group is joined. C20 diacid = O=C(O)CCCCCCCCCCCCCCCCCCC(=O)*; γGlu = O=C(O)[C@H](CCC(=O)[*:2])N[*:1]; AEEA = NCCOCCOCC(=O)O; Aib = CC(C)(N)C(=O)O

Experiments:
human GIPR = molecular target: T1, human GIPR (Homo sapiens, UniProt P48546); test: [125I]-GIP binding, SPA with WGA beads, 0.1% bacitracin; details: geometric mean, read-out: hGIPR Ki
T1 construct: expressed in transfected cells; crude membranes
T1 sequence (P48546 22-466): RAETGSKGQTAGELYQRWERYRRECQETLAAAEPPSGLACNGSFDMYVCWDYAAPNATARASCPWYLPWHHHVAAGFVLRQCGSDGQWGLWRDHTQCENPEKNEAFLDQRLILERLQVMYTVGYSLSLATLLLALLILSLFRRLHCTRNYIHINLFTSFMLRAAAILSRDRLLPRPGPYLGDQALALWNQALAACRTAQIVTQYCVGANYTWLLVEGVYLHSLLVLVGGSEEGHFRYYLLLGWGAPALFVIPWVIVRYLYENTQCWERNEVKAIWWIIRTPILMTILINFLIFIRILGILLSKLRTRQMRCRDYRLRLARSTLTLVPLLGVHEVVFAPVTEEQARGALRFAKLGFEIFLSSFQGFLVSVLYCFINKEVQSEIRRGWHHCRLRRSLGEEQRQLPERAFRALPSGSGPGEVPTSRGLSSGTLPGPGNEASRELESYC
Experimental: (§1) Stably transfected cell lines are prepared by subcloning receptor cDNA into a pcDNA3 expression plasmid and transfected into human embryonic kidney (HEK) 293 (hGcgR and hGLP-1R) or Chinese Hamster Ovary (CHO) (hGIPR) cells followed by selection with Geneticin (hGLP-1R and hGIPR) or hygromycin B (hGcgR).
(§2) Two methods are used for the preparation of crude cell membranes.
(§3) Method 1: Frozen cell pellets are lysed on ice in hypotonic buffer containing 50 mM Tris HCl, pH 7.5, and Roche Complete™ Protease Inhibitors with EDTA. The cell suspension is disrupted using a glass Potter-Elvehjem homogenizer fitted with a Teflon® pestle for 25 strokes. The homogenate is centrifuged at 4° C. at 1100× g for 10 minutes. The supernatant is collected and stored on ice while the pellets are resuspended in homogenization buffer and rehomogenized as described above. The homogenate is centrifuged at 1100× g for 10 minutes. The second supernatant is combined with the first supernatant and centrifuged at 35000× g for 1 hour at 4° C. The resulting membrane pellet is resuspended in homogenization buffer containing protease inhibitors at approximately 1 to 3 mg/mL, quick frozen in liquid nitrogen and stored as aliquots in a −80° C. freezer until use.
(§4) Method 2: Frozen cell pellets are lysed on ice in hypotonic buffer containing 50 mM Tris HCl, pH 7.5, 1 mM MgCl2, Roche Complete™ EDTA-free Protease Inhibitors and 25 units/mL DNAse I (Invitrogen). The cell suspension is disrupted using a glass Potter-Elvehjem homogenizer fitted with a Teflon® pestle for 20 to 25 strokes. The homogenate is centrifuged at 4° C. at 1800× g for 15 minutes. The supernatant is collected and stored on ice while the pellets are resuspended in homogenization buffer (without DNAse I) and rehomogenized as described above. The homogenate is centrifuged at 1800× g for 15 minutes. The second supernatant is combined with the first supernatant and centrifuged an additional time at 1800× g for 15 minutes. The overall supernatant is then centrifuged at 25000× g for 30 minutes at 4° C. The resulting membrane pellet is resuspended in homogenization buffer (without DNAse I) containing protease inhibitors at approximately 1 to 3 mg/mL and stored as aliquots in a −80° C. freezer until use.
The binding buffer contains 25 mM HEPES, pH 7.4, 2.5 mM CaCl2), 1 mM MgCl2, 0.1% (w/v) bacitracin, 0.003% (w/v) TWEEN®-20, and Roche Complete™ Protease Inhibitors without EDTA. […] Plates are sealed and mixed on a plate shaker (setting 6) for 1 minute and read with a PerkinElmer Trilux MicroBeta® scintillation counter after 2.5 to 12 hours of incubation/settling time at room temperature.
(§5) Data are analyzed using four-parameter (curve maximum, curve minimum, IC50, Hill slope) nonlinear regression routines (Genedata Screener, version 12.0.4, Genedata AG, Basal, Switzerland). […] Values for Ki are reported as the geometric mean, with error expressed as the standard error of the mean (SEM) and n is equal to the number of independent replicates (determined in assays performed on different days). […] SEM is only calculated when […] or greater. Means are expressed as geometric means with the standard error of the mean (SEM) and the number of replicates (n) indicated in parentheses.

human GLP-1R = molecular target: T2, human GLP-1R (Homo sapiens, UniProt P43220); test: [125I]-GLP-1 binding, SPA with WGA beads, 0.1% bacitracin; details: geometric mean, read-out: hGLP1R Ki
T2 construct: expressed in transfected cells; crude membranes
Experimental: as §1, §2, §3, §4
The binding buffer contains 25 mM HEPES, pH 7.4, 2.5 mM CaCl2), 1 mM MgCl2, 0.1% (w/v) bacitracin, 0.003% (w/v) TWEEN®-20, and Roche Complete™ Protease Inhibitors without EDTA.
as §5

T2 sequence (P43220 24-463): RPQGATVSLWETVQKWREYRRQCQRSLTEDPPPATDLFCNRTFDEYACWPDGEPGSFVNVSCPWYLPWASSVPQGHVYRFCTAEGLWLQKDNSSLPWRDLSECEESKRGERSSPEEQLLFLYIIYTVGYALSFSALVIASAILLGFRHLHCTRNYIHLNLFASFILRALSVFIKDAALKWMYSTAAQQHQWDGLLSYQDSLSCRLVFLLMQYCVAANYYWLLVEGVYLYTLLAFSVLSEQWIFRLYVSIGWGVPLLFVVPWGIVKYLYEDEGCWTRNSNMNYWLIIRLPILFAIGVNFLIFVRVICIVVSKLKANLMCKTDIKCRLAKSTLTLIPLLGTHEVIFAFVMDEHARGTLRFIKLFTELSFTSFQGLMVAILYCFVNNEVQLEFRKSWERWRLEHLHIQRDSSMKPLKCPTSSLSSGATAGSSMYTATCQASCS

Structure (SMILES)	Ki (human GIPR)	Ki (human GLP-1R)
CC[C@H](C)[C@H](NC(=O)[C@H](CO)NC(=O)[C@H](Cc1ccc(O)cc1)NC(=O)[C@H](CC(=O)O)NC(=O)[C@H](CO)NC(=O)[C@@H](NC(=O)[C@H](Cc1ccccc1)NC(=O)[C@@H](NC(=O)CNC(=O)[C@H](CCC(=O)O)NC(=O)C(C)(C)NC(=O)[C@@H](N)Cc1ccc(O)cc1)[C@@H](C)O)[C@@H](C)CC)C(=O)N[C@@H](CC(C)C)C(=O)N[C@@H](CC(C)C)C(=O)N[C@@H](CC(=O)O)C(=O)N[C@@H](CCCCN)C(=O)N[C@@H](CCCCNC(=O)COCCOCCNC(=O)COCCOCCNC(=O)CC[C@H](NC(=O)CCCCCCCCCCCCCCCCCCC(=O)O)C(=O)O)C(=O)N[C@@H](C)C(=O)N[C@@H](CCC(N)=O)C(=O)NC(C)(C)C(=O)N[C@@H](CC(=O)O)C(=O)N[C@@H](Cc1ccccc1)C(=O)N[C@H](C(=O)N[C@@H](CC(N)=O)C(=O)N[C@@H](Cc1c[nH]c2ccccc12)C(=O)N[C@@H](CC(C)C)C(=O)N[C@@H](CC(C)C)C(=O)N[C@@H](C)C(=O)N[C@@H](CCC(N)=O)C(=O)NCC(=O)N1CCC[C@H]1C(=O)N[C@@H](CO)C(=O)N[C@@H](CO)C(=O)NCC(=O)N[C@@H](C)C(=O)N1CCC[C@H]1C(=O)N1CCC[C@H]1C(=O)N1CCC[C@H]1C(=O)N[C@@H](CO)C(N)=O)C(C)C [Example 8] (H-Y[Aib]EGTFISDYSILLDKK([AEEA-AEEA-γGlu-C20 diacid])AQ[Aib]DFVNWLLAQGPSSGAPPPS-NH2)	0.027 nM	38.1 nM
CC[C@H](C)[C@H](NC(=O)[C@H](CO)NC(=O)[C@H](Cc1ccc(O)cc1)NC(=O)[C@H](CC(=O)O)NC(=O)[C@H](CO)NC(=O)[C@@H](NC(=O)[C@H](Cc1ccccc1)NC(=O)[C@@H](NC(=O)CNC(=O)[C@H](CCC(=O)O)NC(=O)[C@@H](C)NC(=O)[C@@H](N)Cc1ccc(O)cc1)[C@@H](C)O)[C@@H](C)CC)C(=O)N[C@@H](CC(C)C)C(=O)N[C@@H](CC(C)C)C(=O)N[C@@H](CC(=O)O)C(=O)N[C@@H](CCCCN)C(=O)N[C@@H](CCCCNC(=O)COCCOCCNC(=O)COCCOCCNC(=O)CC[C@H](NC(=O)CCCCCCCCCCCCCCCCCCC(=O)O)C(=O)O)C(=O)N[C@@H](Cc1c[nH]cn1)C(=O)N[C@@H](CCC(N)=O)C(=O)NC(C)(C)C(=O)N[C@@H](CC(=O)O)C(=O)N[C@@H](Cc1ccccc1)C(=O)N[C@H](C(=O)N[C@@H](CC(N)=O)C(=O)N[C@@H](Cc1c[nH]c2ccccc12)C(=O)N[C@@H](CC(C)C)C(=O)N[C@@H](CC(C)C)C(=O)N[C@@H](C)C(=O)N[C@@H](CCC(N)=O)C(=O)NCC(=O)N1CCC[C@H]1C(=O)N[C@@H](CO)C(=O)N[C@@H](CO)C(=O)NCC(=O)N[C@@H](C)C(=O)N1CCC[C@H]1C(=O)N1CCC[C@H]1C(=O)N1CCC[C@H]1C(=O)N[C@@H](CO)C(N)=O)C(C)C [Example 9] (H-Y[dA]EGTFISDYSILLDKK([AEEA-AEEA-γGlu-C20 diacid])HQ[Aib]DFVNWLLAQGPSSGAPPPS-NH2)	0.11 nM	168 nM
CC[C@H](C)[C@H](NC(=O)[C@H](CO)NC(=O)[C@H](Cc1ccc(O)cc1)NC(=O)[C@H](CC(=O)O)NC(=O)[C@H](CO)NC(=O)[C@@H](NC(=O)[C@H](Cc1ccccc1)NC(=O)[C@@H](NC(=O)CNC(=O)[C@H](CCC(=O)O)NC(=O)[C@@H](C)NC(=O)[C@@H](N)Cc1ccc(O)cc1)[C@@H](C)O)[C@@H](C)CC)C(=O)N[C@@H](CC(C)C)C(=O)N[C@@H](CC(C)C)C(=O)N[C@@H](CC(=O)O)C(=O)N[C@@H](CCCCN)C(=O)N[C@@H](CCCCNC(=O)COCCOCCNC(=O)COCCOCCNC(=O)CC[C@H](NC(=O)CCCCCCCCCCCCCCCCCCC(=O)O)C(=O)O)C(=O)N[C@@H](Cc1c[nH]cn1)C(=O)N[C@@H](CCC(N)=O)C(=O)N[C@@H](CCC(N)=O)C(=O)N[C@@H](CC(=O)O)C(=O)N[C@@H](Cc1ccccc1)C(=O)N[C@H](C(=O)N[C@@H](CC(N)=O)C(=O)N[C@@H](Cc1c[nH]c2ccccc12)C(=O)N[C@@H](CC(C)C)C(=O)N[C@@H](CC(C)C)C(=O)N[C@@H](C)C(=O)NCC(=O)NCC(=O)N1CCC[C@H]1C(=O)N[C@@H](CO)C(=O)N[C@@H](CO)C(=O)NCC(=O)N[C@@H](C)C(=O)N1CCC[C@H]1C(=O)N1CCC[C@H]1C(=O)N1CCC[C@H]1C(=O)N[C@@H](CO)C(N)=O)C(C)C [Example 10] (H-Y[dA]EGTFISDYSILLDKK([AEEA-AEEA-γGlu-C20 diacid])HQQDFVNWLLAGGPSSGAPPPS-NH2)	0.159 nM	60.7 nM
CC[C@H](C)[C@H](NC(=O)[C@H](CO)NC(=O)[C@H](Cc1ccc(O)cc1)NC(=O)[C@H](CC(=O)O)NC(=O)[C@H](CO)NC(=O)[C@@H](NC(=O)[C@H](Cc1ccccc1)NC(=O)[C@@H](NC(=O)CNC(=O)[C@H](CCC(=O)O)NC(=O)[C@@H](C)NC(=O)[C@@H](N)Cc1ccc(O)cc1)[C@@H](C)O)[C@@H](C)CC)C(=O)N[C@@H](CC(C)C)C(=O)N[C@@H](CC(C)C)C(=O)N[C@@H](CC(=O)O)C(=O)N[C@@H](CCCCN)C(=O)N[C@@H](CCCCNC(=O)COCCOCCNC(=O)COCCOCCNC(=O)CC[C@H](NC(=O)CCCCCCCCCCCCCCCCCCC(=O)O)C(=O)O)C(=O)N[C@@H](C)C(=O)N[C@@H](CCC(N)=O)C(=O)N[C@@H](CCC(N)=O)C(=O)N[C@@H](CC(=O)O)C(=O)N[C@@H](Cc1ccccc1)C(=O)N[C@H](C(=O)N[C@@H](CC(N)=O)C(=O)N[C@@H](Cc1c[nH]c2ccccc12)C(=O)N[C@@H](CC(C)C)C(=O)N[C@@H](CC(C)C)C(=O)N[C@@H](C)C(=O)N[C@@H](CCC(N)=O)C(=O)NCC(=O)N1CCC[C@H]1C(=O)N[C@@H](CO)C(=O)N[C@@H](CO)C(=O)NCC(=O)N[C@@H](C)C(=O)N1CCC[C@H]1C(=O)N1CCC[C@H]1C(=O)N1CCC[C@H]1C(=O)N[C@@H](CO)C(N)=O)C(C)C [Example 11] (H-Y[dA]EGTFISDYSILLDKK([AEEA-AEEA-γGlu-C20 diacid])AQQDFVNWLLAQGPSSGAPPPS-NH2)	0.0584 nM	85.9 nM
CC[C@H](C)[C@H](NC(=O)[C@H](CO)NC(=O)[C@H](Cc1ccc(O)cc1)NC(=O)[C@H](CC(=O)O)NC(=O)[C@H](CO)NC(=O)[C@@H](NC(=O)[C@H](Cc1ccccc1)NC(=O)[C@@H](NC(=O)CNC(=O)[C@H](CCC(=O)O)NC(=O)[C@@H](C)NC(=O)[C@@H](N)Cc1ccc(O)cc1)[C@@H](C)O)[C@@H](C)CC)C(=O)N[C@@H](CC(C)C)C(=O)N[C@@H](CC(C)C)C(=O)N[C@@H](CC(=O)O)C(=O)N[C@@H](CCCCN)C(=O)N[C@@H](CCCCNC(=O)COCCOCCNC(=O)COCCOCCNC(=O)CC[C@H](NC(=O)CCCCCCCCCCCCCCCCCCC(=O)O)C(=O)O)C(=O)N[C@@H](C)C(=O)N[C@@H](CCC(N)=O)C(=O)N[C@@H](CCC(N)=O)C(=O)N[C@@H](CC(=O)O)C(=O)N[C@@H](Cc1ccccc1)C(=O)N[C@H](C(=O)N[C@@H](CC(N)=O)C(=O)N[C@@H](Cc1c[nH]c2ccccc12)C(=O)N[C@@H](CC(C)C)C(=O)N[C@@H](CC(C)C)C(=O)N[C@@H](C)C(=O)NCC(=O)NCC(=O)N1CCC[C@H]1C(=O)N[C@@H](CO)C(=O)N[C@@H](CO)C(=O)NCC(=O)N[C@@H](C)C(=O)N1CCC[C@H]1C(=O)N1CCC[C@H]1C(=O)N1CCC[C@H]1C(=O)N[C@@H](CO)C(N)=O)C(C)C [Example 12] (H-Y[dA]EGTFISDYSILLDKK([AEEA-AEEA-γGlu-C20 diacid])AQQDFVNWLLAGGPSSGAPPPS-NH2)	0.0876 nM	46.8 nM
